Here are results for 33 compounds from patent EP2998294A1, “Naphthyl sulfonamide phenyl derivatives as KEAP-1 modulators for the treatment of diabetes, obesity, dyslipidemia and related disorders” (SANOFI, priority 2014, dated 2016).

Broadly, the IC50 is the midpoint of a concentration-inhibition curve.

T1 sequence (Q14145 321-609): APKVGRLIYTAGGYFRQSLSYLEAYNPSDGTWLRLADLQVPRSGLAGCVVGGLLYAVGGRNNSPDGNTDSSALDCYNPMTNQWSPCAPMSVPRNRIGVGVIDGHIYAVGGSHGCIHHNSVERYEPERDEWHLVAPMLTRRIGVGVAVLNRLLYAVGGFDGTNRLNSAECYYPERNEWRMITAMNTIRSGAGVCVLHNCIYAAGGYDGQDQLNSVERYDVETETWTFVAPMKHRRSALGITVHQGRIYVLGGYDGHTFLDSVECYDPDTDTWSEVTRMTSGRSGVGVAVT

The first experiment has as its target T1, human Keap1 kelch domain (amino acids Ala321-Thr609) (Homo sapiens, UniProt Q14145).
T1 construct: human Keap1 kelch domain (amino acids Ala321-Thr609)
Description: Keap1-Nrf2 peptide binding assay (fluorescence polarisation).
Settings: not given
The procedure: A fluorescence polarisation assay was used to measure binding of the human Keap1 kelch domain (amino acids Ala321-Thr609) to a fluorescently labeled peptide containing a Keap1 binding site of human Nrf2 (Alexa633-AFFAQLQLDEETGEFL; JPT Technologies, Berlin, Germany). Two microliters of test compound in reaction buffer (phosphate-buffered saline, 2 mM DL-dithiothreitol, 0.015 % (v/v) Brij-35) containing 6 % (v/v) DMSO were mixed with two microliters of the Keap1 kelch domain in reaction buffer in a black 384-well small volume microtiter plate and incubated at ambient temperature for 15 minutes. Thereafter, two microliters were added of the fluorescently labeled Nrf2 peptide in reaction buffer, and the mixture was incubated for a further 30 minutes at ambient temperature. Final concentrations of the Keap1 kelch domain and the fluorescently labeled Nrf2 peptide were 20 nM and 50 nM, respectively.
Fluorescence polarization (FP) was measured at excitation and emission wavelengths of 635 nm and 660 nm, respectively. Positive controls for binding (two microliters of reaction buffer containing 6 % (v/v) DMSO instead of test compound in the same buffer) and negative controls (as positive controls, but without Keap1 kelch domain) were included on each microtiter plate. Data were expressed as percent-inhibition values: percentinhibition = 100⋅(1-(|FPcompound-FPnegative controle|)/(|FPpositive controle-FPnegative controle|)) [formula]
IC50 values were determined by testing different compound concentrations and fitting the resulting percent-inhibition values to the following equation using XLFit4: percentinhibition = A + (B-A)/(1 + (((IC50)/([Compound])))^D) [formula]
Parameter A was set to zero, pre-fit values for parameters B and D were set to 100 and 1, respectively.
On the technique in general: In fluorescence polarisation assays a small probe gives low polarisation when free and higher when bound to something large.
Turning to `O=C1Cc2cc(S(=O)(=O)Nc3ccc(-c4cccc(C(=O)O)c4)c4ccccc34)ccc2N1` [Example 51, [4-[(2-oxoindolin-5-yl)sulfonylamino]-1-naphthyl]benzoic acid], the IC50 came out at 7800 nM.

Still in this experiment, the particulars now being: binding of Keap1 kelch domain (20 nM) to fluorescently labeled Nrf2 peptide (50 nM).
`O=C(O)c1ccc(F)c(-c2ccc(NS(=O)(=O)c3cc(F)cc(F)c3Cl)c3ccccc23)c1` [Example 92, 3-[4-[(2-chloro-3,5-difluorophenyl)sulfonylamino]-1-naphthyl]-4-fluorobenzoic acid] showed an IC50 of 5300 nM. The same measure, in the same setting: for `O=C(O)c1cccc(-c2ccc(NS(=O)(=O)c3cc(Cl)sc3Cl)c3ccccc23)c1` [Example 49, 3-[4-[(2,5-dichloro-3-thienyl)sulfonylamino]-1-naphthyl]benzoic acid] the value was 1700 nM; for `O=C(O)c1cccc(-c2ccc(NS(=O)(=O)c3cccc(Cl)c3Cl)c3ccccc23)c1` [Example 34, 3-[4-[(2,3-dichlorophenyl)sulfonylamino]-1-naphthyl]benzoic acid], 1500 nM. Still for that read-out and setting: then `O=C(O)c1ccc(F)c(-c2ccc(NS(=O)(=O)c3cccc(Cl)c3Cl)c3ccccc23)c1` [Example 74, 3-[4-[(2,3-dichlorophenyl)sulfonylamino]-1-naphthyl]-4-fluoro-benzoic acid], with 900 nM; and `O=C(O)c1cccc(-c2ccc(NS(=O)(=O)c3cc(Cl)ccc3Cl)c3ccccc23)c1` [Example 54, 3-[4-[(2,5-dichlorophenyl)sulfonylamino]-1-naphthyl]benzoic acid], with 3700 nM; and `O=C(O)c1cccc(-c2ccc(NS(=O)(=O)c3cc(Cl)c(Cl)s3)c3ccccc23)c1` [Example 19, 3-[4-[(4,5-dichloro-2-thienyl)sulfonylamino]-1-naphthyl]benzoic acid], with 7000 nM.

The compound `O=C(O)c1cccc(-c2ccc(NS(=O)(=O)c3ccc(Cl)cc3Cl)c3ccccc23)c1` [Example 15, 3-[4-[(2,4-dichlorophenyl)sulfonylamino]-1-naphthyl]benzoic acid] came in with a half-maximal inhibitory concentration (IC50) of 1000 nM.

As to `Cc1ccc(Cl)cc1S(=O)(=O)Nc1ccc(-c2cc(C(=O)O)ccc2F)c2ccccc12` [Example 87, 3-[4-[(5-chloro-2-methylphenyl)sulfonylamino]-1-naphthyl]-4-fluorobenzoic acid], the IC50 came out at 1000 nM.

The same experiment, now with this note: binding of Keap1 kelch domain (20 nM) to fluorescently labeled Nrf2 peptide (50 nM); read-out: IC50.
Turning to `Cc1c(S(=O)(=O)Nc2ccc(-c3cccc(C(=O)O)c3)c3ccccc23)cnn1CC(C)C` [Example 68, 3-[4-[(1-isobutyl-5-methyl-pyrazol-4-yl)sulfonylamino]-1-naphthyl]benzoic acid], the IC50 was determined as 2400 nM.

Consider `Cc1ccc2c(NS(=O)(=O)c3c(C)c(C)cc(C)c3C)ccc(-c3cccc(C(=O)O)c3)c2n1` [Example 7, 3-[2-methyl-5-[(2,3,5,6-tetramethylphenyl)sulfonylamino]-8-quinolyl]benzoic acid], for which the IC50 amounted to 1100 nM. Regarding `Cc1cc(C)c(C)c(S(=O)(=O)Nc2ccc(-c3cc(C(=O)O)ccc3F)c3ccccc23)c1C` [Example 5, 4-fluoro-3-[4-[(2,3,5,6-tetramethylphenyl)sulfonylamino]-1-naphthyl]benzoic acid], the half-inhibitory concentration (IC50) amounted to 90 nM.

Regarding `Cc1c(S(=O)(=O)Nc2ccc(-c3cc(C(=O)O)ccc3F)c3ccccc23)cnn1C1CCCC1` [Example 90, 3-[4-[(1-cyclopentyl-5-methyl-pyrazol-4-yl)sulfonylamino]-1-naphthyl]-4-fluorobenzoic acid], the half-inhibitory concentration (IC50) worked out at 1200 nM. For the compound `CCCCn1cc(S(=O)(=O)Nc2ccc(-c3cccc(C(=O)O)c3)c3nc(C)ccc23)c(C)n1` [Example 71, 3-[5-[(1-butyl-3-methyl-pyrazol-4-yl)sulfonylamino]-2-methyl-8-quinolyl]benzoic acid], the IC50 was 22000 nM.

For `Cc1nn(C)c(C)c1S(=O)(=O)Nc1ccc(-c2cccc(C(=O)O)c2)c2ccccc12` [Example 22, 3-[4-[(1,3,5-trimethylpyrazol-4-yl)sulfonylamino]-1-naphthyl]benzoic acid], the half-maximal inhibitory concentration (IC50) amounted to 800 nM. Regarding `CC(=O)Nc1nc(C)c(S(=O)(=O)Nc2ccc(-c3cccc(C(=O)O)c3)c3ccccc23)s1` [Example 11, 3-[4-[(2-acetamido-4-methyl-thiazol-5-yl)sulfonylamino]-1-naphthyl]benzoic acid], the IC50 is 2800 nM. In the case of `Cc1c(S(=O)(=O)Nc2ccc(-c3cc(C(=O)O)ccc3F)c3ccccc23)cnn1-c1ccccc1` [Example 77, 4-fluoro-3-[4-[(5-methyl-1-phenyl-pyrazol-4-yl)sulfonylamino]-1-naphthyl]benzoic acid], the concentration for half-maximal inhibition (IC50) worked out at 3700 nM.

`CCCn1ncc(S(=O)(=O)Nc2ccc(-c3cccc(C(=O)O)c3)c3ccccc23)c1C` [Example 63, 3-[4-[(5-methyl-1-propyl-pyrazol-4-yl)sulfonylamino]-1-naphthyl]benzoic acid]: the IC50 worked out at 3200 nM. As to `Cc1nc(-c2ccc(C(F)(F)F)cc2)sc1S(=O)(=O)Nc1ccc(-c2cccc(C(=O)O)c2F)c2ccccc12` [Example 8, 2-fluoro-3-[4-[[4-methyl-2-[4-(trifluoromethyl)phenyl]thiazol-5-yl]sulfonylamino]-1-naphthyl]benzoic acid], the half-inhibitory concentration (IC50) is 5200 nM. Still for that read-out and setting: then `Cc1cc(S(=O)(=O)Nc2ccc(-c3cc(C(=O)O)ccc3F)c3ccccc23)c(Cl)cc1Cl` [Example 88, 3-[4-[(2,4-dichloro-5-methylphenyl)sulfonylamino]-1-naphthyl]-4-fluorobenzoic acid], with 1300 nM; and `Cc1nn(C)c(Cl)c1S(=O)(=O)Nc1ccc(-c2cccc(C(=O)O)c2)c2ccccc12` [Example 12, 3-[4-[(5-chloro-1,3-dimethyl-pyrazol-4-yl)sulfonylamino]-1-naphthyl]benzoic acid], with 400 nM. On to `Cc1c(S(=O)(=O)Nc2ccc(-c3cc(C(=O)O)ccc3F)c3ccccc23)cnn1CC(C)C` [Example 84, 4-fluoro-3-[4-[(1-isobutyl-5-methyl-pyrazol-4-yl)sulfonylamino]-1-naphthyl]benzoic acid], for which the IC50 amounted to 1700 nM. Take `Cc1nn(CC(C)C)cc1S(=O)(=O)Nc1ccc(-c2cccc(C(=O)O)c2)c2ccccc12` [Example 64, 3-[4-[(1-isobutyl-3-methyl-pyrazol-4-yl)sulfonylamino]-1-naphthyl]benzoic acid]: the half-inhibitory concentration (IC50) is 4500 nM. `Cc1c(S(=O)(=O)Nc2ccc(-c3cc(C(=O)O)ccc3F)c3ncccc23)sc2ccc(Cl)cc12` [Example 93, 3-[5-[(5-chloro-3-methyl-benzothiophen-2-yl)sulfonylamino]-8-quinolyl]-4-fluoro-benzoic acid]: the concentration for half-maximal inhibition (IC50) was 6500 nM.

Turning to `Cc1nn(-c2ccccc2)c(C)c1S(=O)(=O)Nc1ccc(-c2cccc(C(=O)O)c2)c2ccccc12` [Example 50, 3-[4-[(3,5-dimethyl-1-phenyl-pyrazol-4-yl)sulfonylamino]-1-naphthyl]benzoic acid], the concentration for half-maximal inhibition (IC50) came out at 1600 nM. Still for that read-out and setting: for `Cc1cc(S(=O)(=O)Nc2ccc(-c3cccc(C(=O)O)c3)c3ccccc23)c(Cl)cc1Cl` [Example 14, 3-[4-[(2,4-dichloro-5-methylphenyl)sulfonylamino]-1-naphthyl]benzoic acid] the value was 3800 nM; for `O=C(O)c1cccc(-c2ccc(NS(=O)(=O)c3ccc(N4CCCC4=O)cc3)c3ccccc23)c1` [Example 26, 3-[4-[[4-(2-oxopyrrolidin-1-yl)phenyl]sulfonylamino]-1-naphthyl]benzoic acid], 2500 nM; for `Cc1cc(C)c(C)c(S(=O)(=O)Nc2ccc(-c3cccc(C(=O)O)c3O)c3ccccc23)c1C` [Example 10, 2-hydroxy-3-[4-[(2,3,5,6-tetramethylphenyl)sulfonylamino]-1-naphthyl]benzoic acid], 2500 nM.

As to `O=C(O)c1cccc(-c2ccc(NS(=O)(=O)c3c(Cl)nc4sccn34)c3ccccc23)c1` [Example 60, 3-[4-[(6-chloroimidazo[2,1-b]thiazol-5-yl)sulfonylamino]-1-naphthyl]benzoic acid], the IC50 came to 900 nM. As to `CC(=O)Nc1ccc(C)c(S(=O)(=O)Nc2ccc(-c3cccc(C(=O)O)c3)c3ccccc23)c1` [Example 31, 3-[4-[(5-acetamido-2-methylphenyl)sulfonylamino]-1-naphthyl]benzoic acid], the IC50 was 3200 nM. Consider `O=C(O)c1ccc(F)c(-c2ccc(NS(=O)(=O)c3cc(Cl)sc3Cl)c3ccccc23)c1` [Example 85, 3-[4-[(2,5-dichloro-3-thienyl)sulfonylamino]-1-naphthyl]-4-fluoro-benzoic acid], for which the IC50 stood at 900 nM.

As to `Cc1nn(C)c(Cl)c1S(=O)(=O)Nc1ccc(-c2cc(C(=O)O)ccc2F)c2ccccc12` [Example 56, 3-[4-[(5-chloro-1,3-dimethyl-pyrazol-4-yl)sulfonylamino]-1-naphthyl]-4-fluorobenzoic acid], the IC50 came out at 300 nM. Still for that read-out and setting: for `Cc1ccc(F)c(S(=O)(=O)Nc2ccc(-c3cccc(C(=O)O)c3)c3ccccc23)c1` [Example 28, 3-[4-[(2-fluoro-5-methylphenyl)sulfonylamino]-1-naphthyl]benzoic acid] the value was 5100 nM.
